Measurements: patent US20060293307A1, “Oxazolidinone derivatives as antimicrobials” (priority 2002, published 2006)
In brackets after ≈: the same amount, converted by molar mass.

Legend:
Test in all cases: MIC, agar incorporation method
[1] = tested on: S. pneumoniae AB 16; assay type: cell-based, Streptococcus pneumoniae; conditions: Streptococcus pneumoniae, AB16; S. No. 39, S. pneumoniae AB 16; read-out: MIC
[2] = tested on: S. pneumoniae AB 10; assay type: cell-based, Streptococcus pneumoniae; conditions: Streptococcus pneumoniae, AB10; S. No. 35, S. pneumoniae AB 10; read-out: MIC
[3] = tested on: Salmonella 205; assay type: cell-based; conditions: S. No. 26, Salmonella 205; read-out: MIC
Procedure, shortened: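 Doubling dilutions of compound in DMSO were incorporated into Mueller-Hinton agar; 10^4 CFU/spot inoculated from 0.5 McFarland suspensions and incubated 18 h (24 h for MRSN studies). MIC = lowest concentration without visible growth; valid only when ATCC reference strains gave in-range MICs.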

[4] = tested on: Serratia marcescens 12999; assay type: cell-based; conditions: S. No. 29, Serratia marcescens 12999; read-out: MIC
[5] = tested on: S. pneumoniae AB 34; assay type: cell-based, Streptococcus pneumoniae; conditions: Streptococcus pneumoniae, AB34; S. No. 49, S. pneumoniae AB 34; read-out: MIC
[6] = tested on: S. pneumoniae 217; assay type: cell-based, Streptococcus pneumoniae; conditions: Streptococcus pneumoniae; S. No. 38, S. pneumoniae 217; read-out: MIC
[7] = tested on: S. epidermidis 823; assay type: cell-based, Staphylococcus epidermidis; conditions: Staphylococcus epidermidis; S. No. 12, S. epidermidis 823; read-out: MIC
[8] = tested on: S. epidermidis ATCC 12228; assay type: cell-based, Staphylococcus epidermidis; conditions: Staphylococcus epidermidis, ATCC12228; S. No. 10, S. epidermidis ATCC 12228; read-out: MIC
[9] = tested on: S. pneumoniae AB 25; assay type: cell-based, Streptococcus pneumoniae; conditions: Streptococcus pneumoniae, AB25; S. No. 45, S. pneumoniae AB 25; read-out: MIC
[10] = tested on: S. pneumoniae AB 22; assay type: cell-based, Streptococcus pneumoniae; conditions: Streptococcus pneumoniae, AB22; S. No. 42, S. pneumoniae AB 22; read-out: MIC
[11] = tested on: S pneumoniae 1294.; assay type: cell-based, Streptococcus pneumoniae; conditions: Streptococcus pneumoniae; S. No. 55, S pneumoniae 1294.; read-out: MIC
[12] = tested on: (MRSA) 562; assay type: cell-based, Staphylococcus aureus; conditions: Staphylococcus aureus; S. No. 8, (MRSA) 562; read-out: MIC
[13] = tested on: Moraxella M1; assay type: cell-based; conditions: S. No. 58, Moraxella M1; read-out: MIC
[14] = tested on: E. faecalis 29212; assay type: cell-based; conditions: Enterococcus faecalis; S. No. 17, E. faecalis 29212; read-out: MIC
[15] = tested on: S. pneumoniae AB-2; assay type: cell-based, Streptococcus pneumoniae; conditions: Streptococcus pneumoniae, AB2; S. No. 31, S. pneumoniae AB-2; read-out: MIC
[16] = tested on: S. aureus ATCC29213; assay type: cell-based, Staphylococcus aureus; conditions: Staphylococcus aureus; S. No. 2, S. aureus ATCC29213; read-out: MIC
[17] = tested on: S. pneumoniae AB 29; assay type: cell-based, Streptococcus pneumoniae; conditions: Streptococcus pneumoniae, AB29; S. No. 46, S. pneumoniae AB 29; read-out: MIC
[18] = tested on: S. pneumoniae AB4; assay type: cell-based, Streptococcus pneumoniae; conditions: Streptococcus pneumoniae; S. No. 33, S. pneumoniae AB4; read-out: MIC
[19] = tested on: P. aeruginosa ATCC 27853; assay type: cell-based; conditions: Pseudomonas aeruginosa, ATCC27853; S. No. 28, P. aeruginosa ATCC 27853; read-out: MIC
[20] = tested on: S. aureus (MRSA) 15187; assay type: cell-based, Staphylococcus aureus; conditions: Staphylococcus aureus; S. No. 4, S. aureus (MRSA) 15187; read-out: MIC
[21] = tested on: E. durans 581; assay type: cell-based; conditions: Enterococcus durans; S. No. 24, E. durans 581; read-out: MIC
[22] = tested on: E. faecium 6A (VRE); assay type: cell-based, Enterococcus faecium; conditions: Enterococcus faecium; S. No. 21, E. faecium 6A (VRE); read-out: MIC
[23] = tested on: E. coli 25922; assay type: cell-based; conditions: Escherichia coli; S. No. 25, E. coli 25922; read-out: MIC
[24] = tested on: Moraxella cata. M2; assay type: cell-based; conditions: S. No. 59, Moraxella cata. M2; read-out: MIC
[25] = tested on: S. pneumoniae 1251; assay type: cell-based, Streptococcus pneumoniae; conditions: Streptococcus pneumoniae; S. No. 54, S. pneumoniae 1251; read-out: MIC
[26] = tested on: S. pneumoniae AB 21; assay type: cell-based, Streptococcus pneumoniae; conditions: Streptococcus pneumoniae, AB21; S. No. 41, S. pneumoniae AB 21; read-out: MIC
[27] = tested on: S. pneumoniae ATCC 6303; assay type: cell-based, Streptococcus pneumoniae; conditions: Streptococcus pneumoniae, ATCC6303; S. No. 50, S. pneumoniae ATCC 6303; read-out: MIC
[28] = tested on: S. pyogenes 20361; assay type: cell-based, Streptococcus pyogenes; conditions: Streptococcus pyogenes; S. No. 53, S. pyogenes 20361; read-out: MIC
[29] = tested on: S. pneumoniae 1275; assay type: cell-based, Streptococcus pneumoniae; conditions: Streptococcus pneumoniae; S. No. 57, S. pneumoniae 1275; read-out: MIC
[30] = tested on: S. pneumoniae AB 30; assay type: cell-based, Streptococcus pneumoniae; conditions: Streptococcus pneumoniae, AB30; S. No. 47, S. pneumoniae AB 30; read-out: MIC
[31] = tested on: S. epidermidis (MRSE) 23760; assay type: cell-based, Staphylococcus epidermidis; conditions: Staphylococcus epidermidis; S. No. 11, S. epidermidis (MRSE) 23760; read-out: MIC
[32] = tested on: S. epidermidis (MRSE)32965; assay type: cell-based, Staphylococcus epidermidis; conditions: Staphylococcus epidermidis; S. No. 13, S. epidermidis (MRSE)32965; read-out: MIC

Compound CC(=O)NC[C@H]1CN(c2ccc(N3CCN(c4ccc(C=O)s4)CC3)c(F)c2)C(=O)O1 [Compound No. 2, (S)—N-[[3-[3-Fluoro-4-[4-(5-formyl-2-thienyl)-1-piperazinyl]phenyl]-2-oxo-5-oxazolidinyl]methyl]acetamide] has an MIC [1] of less than 0.25 µg/mL, an MIC [2] of less than 0.25 µg/mL and an MIC [3] greater than 16 µg/mL. The MIC [4] was greater than 16 µg/mL, the MIC [5] was 0.5 µg/mL (≈ 1.12 µM) and the MIC [6] was 0.5 µg/mL (≈ 1.12 µM). For the same compound, the MIC [7] was 0.5 µg/mL (≈ 1.12 µM), the MIC [8] was 0.5 µg/mL (≈ 1.12 µM) and the MIC [9] was less than 0.25 µg/mL. It also gave an MIC [10] of 0.5 µg/mL (≈ 1.12 µM), an MIC [11] of 0.5 µg/mL (≈ 1.12 µM) and an MIC [12] of 0.5 µg/mL (≈ 1.12 µM). It also gave an MIC [13] of 0.5 µg/mL (≈ 1.12 µM), an MIC [14] of less than 0.25 µg/mL and an MIC [15] of less than 0.25 µg/mL. The MIC [16] was 1 µg/mL (≈ 2.24 µM), the MIC [17] was less than 0.25 µg/mL and the MIC [18] was 0.5 µg/mL (≈ 1.12 µM). It also gave an MIC [19] greater than 16 µg/mL, an MIC [20] of 0.5 µg/mL (≈ 1.12 µM) and an MIC [21] of 0.5 µg/mL (≈ 1.12 µM). The MIC [22] was 1 µg/mL (≈ 2.24 µM), the MIC [23] was greater than 16 µg/mL and the MIC [24] was 0.5 µg/mL (≈ 1.12 µM). The MIC [25] was 0.5 µg/mL (≈ 1.12 µM), the MIC [26] was 0.5 µg/mL (≈ 1.12 µM) and the MIC [27] was 0.5 µg/mL (≈ 1.12 µM). For the same compound, the MIC [28] was 0.5 µg/mL (≈ 1.12 µM), the MIC [29] was less than 0.25 µg/mL and the MIC [30] was 0.5 µg/mL (≈ 1.12 µM). The MIC [31] was less than 0.25 µg/mL and the MIC [32] was less than 0.25 µg/mL.
